≈ marks a conversion by molar mass, not a printed value. Calls of active or inactive are those of the source. The calls are words filed in the database; no cut-off is given here.
Columns and labels:
Haemonchus contortus = experiment: Anthelmintic activity against Haemonchus contortus assessed as reduction in L3 larval motility; assay type: functional
[1] = test system: Heligmosomoides polygyrus; experiment: Anthelmintic activity against Heligmosomoides polygyrus infected Swiss-Webster mouse assessed as reduction of worm counts at 25 mg/kg, im; assay type: functional, organism-based; design: dose 25 mg/kg
Mus musculus = experiment: Toxicity in Swiss-Webster mouse at 50 mg/kg, im; assay type: organism-based; design: dose 50 mg/kg, route intramuscular; conditions: in vivo
[2] = test system: Heligmosomoides polygyrus; experiment: Anthelmintic activity against Heligmosomoides polygyrus infected Swiss-Webster mouse assessed as reduction of worm counts at 30 mg/kg, im; assay type: functional, organism-based; design: dose 30 mg/kg

Row | Structure (SMILES) | EC90 (Haemonchus contortus) [µg/mL] | Activity [1] | Activity (Mus musculus) | Activity [2]
1 | Cc1cc2c3cc(C)c(O)c4c(=O)c5c(c(c6c7c(c(=O)c(c1O)c26)[C@@H](C)O[C@@H](C)C7)c43)C[C@H](C)O[C@@H]5C [SCUTIAQUINONE A] | 9.3 (≈ 18.2 µM) | inactive | – | –
2 | Cc1cc2c3c4c(c(O)c5c(=O)c(C)cc(c6c7c(c(=O)c(c1O)c26)[C@@H](C)O[C@@H](C)C7)c53)[C@@H](C)O[C@@H](C)C4 [SCUTIAQUINONE B] | 10.3 (≈ 20.2 µM) | – | Toxic | inactive
